Test results as given in PMC12683522 (Frontiers in Pharmacology, 2025).

Columns and labels:
[1] = parameters: method as in Eser et al., 2022; settings: intragastric pH above 4.5; ref Eser et al., 2022; cited from earlier work
[2] = Single-dose pharmacokinetics of palbociclib tablets under fasting conditions with rabeprazole pre-treatment; format: in vivo, healthy Chinese subjects; settings: sampling to 96 h after administration
Method: This was a single-center, randomized, open-label, single-dose, two-period crossover bioequivalence study conducted under fasting conditions with rabeprazole pre-treatment. It was carried out at the Phase I Clinical Research Center of Hebei General Hospital in Shijiazhuang, Hebei Province, China, from 12 September 2023, to 27 October 2023. […] Water intake was prohibited from 1 h before to 1 h after each dose (except for breakfast and water used for medication administration). On Day 1, under fasted conditions (at least 10 h), subjects received their seventh dose of rabeprazole and maintained fasting for an additional 4 h. […]
Tmax, t1/2z, elimination rate constant (λz) and percentage of extrapolated residual area (AUC_%Extrap) were the secondary endpoints. […] Cmax and Tmax were determined directly from the observed plasma concentration-time profiles. AUC0-t was calculated using the linear/log trapezoidal method. AUC0‐∞ was determined by formula: AUC0‐∞ = AUC0-t + Ct/λz, where Ct was the last measurable concentration. The slope of the terminal segment of the semi-logarithmic drug-time curve calculated by linear regression is used to obtain λz. t1/2z was calculated as ln2/λz. AUC_%Extrap was determined by formula: AUC_%Extrap = [( AUC0‐∞ - AUC0-t)/ AUC0‐∞ ]×100%. For pharmacokinetic parameters that cannot be calculated due to inapplicable data, they are marked with “-” in the dataset.

[3] = Safety assessment (adverse events, CTCAE v5.0); format: in vivo, healthy Chinese subjects
Method: Safety assessments included AEs, SAEs, concomitant medications, laboratory tests, clinical symptoms, vital sign measurements, 12-lead ECG and physical examination results. […] Laboratory tests, physical examinations, and 12-lead ECG were performed at screening and during the follow-up period. All AEs were monitored throughout the study by the research doctors and spontaneously reported by the subjects. AEs were coded using MedDRA (Medical Dictionary for Regulatory Activities: Version 26.1) and summarized according to System Organ Class (SOC) and Preferred Term (PT), including the number and percentage of subjects experiencing AEs and the frequency of AEs. The severity of AEs was graded according to the Common Terminology Criteria for Adverse Events (CTCAE, Version 5.0) issued by the U.S. National Cancer Institute. Missing safety data were labeled as “Missing” in the datasets and were not imputed in the subsequent analyses.

[4] = Bioequivalence analysis of test vs reference palbociclib tablets (GLSM ratio, 90% CI); format: in vivo, healthy Chinese subjects; settings: fasting, rabeprazole pre-treatment
Method: After log-transforming Cmax, AUC0−t, and AUC0‐∞ , analysis of variance (using the PROC MIXED method) was performed via a mixed linear effects model, with formulation, period, and sequence treated as fixed effects and subject nested within sequence as a random effect. Throughout the analyses, missing data were, in principle, not imputed. Bioequivalence was assessed using the two one-sided t-tests, and the 90% confidence interval (CI) for the ratio of the geometric least squares means of the two formulations was calculated. If the CI fell entirely within the range of 80.00%–125.00%, the formulations were deemed bioequivalent. Tmax was evaluated using the non-parametric Wilcoxon signed-rank test, and statistical significance was considered when P < 0.05. Pharmacokinetic parameters were calculated using Phoenix WinNonlin (version 8.3), while the remaining statistical analyses and data processing were performed by SAS software (version 9.4). Continuous variables were presented with descriptive statistics, and categorical data were expressed as frequencies and percentages.

CC(=O)c1c(C)c2cnc(Nc3ccc(N4CCNCC4)cn3)nc2n(C2CCCC2)c1=O [palbociclib]
solubility [1]: < 500 µg/mL
share of AUC0‐∞ covered by AUC0-t [2]: 93%
severity of AEs ([3]; CTCAE v5.0): mild and reported as grade 1
adverse events confirmed as adverse reactions ([3]; of 28 adverse events in 17 subjects): 4
Sum of treatment-emergent AEs, AE count ([3]; safety analysis set): 28
incidence of AEs ([3]; safety analysis set): 51.5%
serious adverse events (SAEs) ([3]; safety analysis set): No SAEs occurred
Intra-subject CV of AUC0-t [4]: 6.14%
Intra-subject CV of AUC0‐∞ [4]: 5.83%
Intra-subject CV of Cmax [4]: 9.65%
